According to patent US9944602B2, “Piperidinone herbicides” (E. I. DU PONT DE NEMOURS AND COMPANY, priority 2014, dated 2018):

What was measured:
Type in all cases: in vivo
[1] = system: kochia (Kochia scoparia); assay: Test C postemergence kochia; details: Table C, scale 0 to 100
Description: (§1) Seeds of plant species selected from blackgrass (Alopecurus myosuroides), ryegrass, Italian (Italian ryegrass, Lolium multiflorum), wheat (winter wheat, Triticum aestivum), galium (catchweed bedstraw, Galium aparine), corn (Zea mays), crabgrass, large (large crabgrass, Digitaria sanguinalis), foxtail, giant (giant foxtail, Setaria faberii), johnsongrass (Sorghum halepense), lambsquarters (Chenopodium album), morningglory (Ipomoea coccinea), yellow (yellow nutsedge, Cyperus esculentus), pigweed (Amaranthus retroflexus), ragweed (common ragweed, Ambrosia elatior), soybean (Glycine max), barnyardgrass (Echinochloa crus-galli), oilseed rape (Brassica napus), waterhemp (common waterhemp, Amaranthus rudis), and velvetleaf (Abutilon theophrasti) were planted into a blend of loam soil and sand and treated preemergence with test chemicals formulated in a non-phytotoxic solvent mixture which included a surfactant. At the same time, plants selected from these crop and weed species and also chickweed (common chickweed, Stellaria media), kochia (Kochia scoparia), and oat, wild (wild oat, Avena fatua) were planted in pots containing Sunshine Redi-Earth® planting medium comprising spaghnum peat moss, vermiculite, starter nutrients and dolomitic limestone and treated with postemergence applications of test chemicals formulated in the same manner. Plants ranged in height from 2 to 18 cm (1- to 4-leaf stage) for postemergence treatments. Treated plants and controls were maintained in a greenhouse for 13 to 15 days, after which time all species were compared to controls and visually evaluated. Plant response ratings, summarized in Table C, are based on a scale of 0 to 100 where 0 is no effect and 100 is complete control. A dash (-) response means no test result.

[2] = system: chickweed (common chickweed, Stellaria media); assay: Test C postemergence chickweed; details: Table C, scale 0 to 100
Description: as §1

[3] = system: oilseed rape (Brassica napus); assay: Test C postemergence oilseed rape; details: Table C, scale 0 to 100
Description: as §1

[4] = system: morningglory (Ipomoea coccinea); assay: Test C postemergence morningglory; details: Table C, scale 0 to 100
Description: as §1

[5] = system: waterhemp (common waterhemp, Amaranthus rudis); assay: Test C postemergence waterhemp; details: Table C, scale 0 to 100
Description: as §1

[6] = system: yellow (yellow nutsedge, Cyperus esculentus); assay: Test C preemergence yellow nutsedge; details: Table C, scale 0 to 100
Description: as §1

[7] = system: morningglory (Ipomoea coccinea); assay: Test C preemergence morningglory; details: Table C, scale 0 to 100
Description: as §1

[8] = system: foxtail, giant (giant foxtail, Setaria faberii); assay: Test C preemergence foxtail, giant; details: Table C, scale 0 to 100
Description: as §1

[9] = system: morningglory (Ipomoea spp.); assay: Test A postemergence morningglory; details: 0 to 100 scale, 0 is no effect, 100 is complete control
Description: (§2) Seeds of plant species selected from barnyardgrass (Echinochloa crus-galli), kochia (Kochia scoparia), ragweed (common ragweed, Ambrosia elatior), ryegrass, Italian (Italian ryegrass, Lolium multiflorum), crabgrass, large (large crabgrass, Digitaria sanguinalis), foxtail, giant (giant foxtail, Setaria faberii), morningglory (Ipomoea spp.), pigweed (Amaranthus retroflexus), velvetleaf (Abutilon theophrasti), wheat (Triticum aestivum), and corn (Zea mays) were planted into a blend of loam soil and sand and treated preemergence with a directed soil spray using test chemicals formulated in a non-phytotoxic solvent mixture which included a surfactant.
(§3) At the same time, plants selected from these crop and weed species and also blackgrass (Alopecurus myosuroides), and galium (catchweed bedstraw, Galium aparine) were planted in pots containing the same blend of loam soil and sand and treated with postemergence applications of test chemicals formulated in the same manner. Plants ranged in height from 2 to 10 cm and were in the one- to two-leaf stage for the postemergence treatment. Treated plants and untreated controls were maintained in a greenhouse for approximately 10 d, after which time all treated plants were compared to untreated controls and visually evaluated for injury. Plant response ratings, summarized in Table A, are based on a 0 to 100 scale where 0 is no effect and 100 is complete control. A dash (-) response means no test result.

[10] = system: crabgrass, large (large crabgrass, Digitaria sanguinalis); assay: Test A preemergence crabgrass, large; details: 0 to 100 scale; for Crabgrass, Large plant response rating: 125 g ai/ha, 0 no effect, 100 complete control; for Plant response rating, Crabgrass, Large: 500 g ai/ha, 0 is no effect, 100 is complete control
Description: as §2, §3

SMILES	Plant response rating ([1]; 31 g ai/ha)	Plant response rating ([1]; 62 g ai/ha)	Plant response rating ([1]; 125 g ai/ha)	Plant response rating ([1]; 250 g ai/ha)	Plant response rating ([2]; 31 g ai/ha)	Plant response rating ([2]; 62 g ai/ha)	Plant response rating ([2]; 125 g ai/ha)	Plant response rating ([2]; 250 g ai/ha)	Plant response rating ([3]; 31 g ai/ha)	Plant response rating ([3]; 62 g ai/ha)	Plant response rating ([3]; 125 g ai/ha)	Plant response rating ([3]; 250 g ai/ha)	Plant response rating ([4]; 31 g ai/ha)	Plant response rating ([4]; 62 g ai/ha)	Plant response rating ([4]; 125 g ai/ha)	Plant response rating ([4]; 250 g ai/ha)	Plant response rating ([5]; 31 g ai/ha)	Plant response rating ([5]; 62 g ai/ha)	Plant response rating ([5]; 125 g ai/ha)	Plant response rating ([5]; 250 g ai/ha)	also measured
O=C1NCCC(c2cccc(C(F)(F)F)c2)C1C(=O)Nc1ccccc1Cl (racemic) [Compound 17]	0	0	0	0	0	0	0	5	0	0	0	0	0	0	0	5	0	0	0	0	
O=C1NCCC(c2cccc(C(F)(F)F)c2)C1C(=O)Nc1ccc(F)c(F)c1F (racemic) [Compound 28]																					Plant response rating ([6]; 31 g ai/ha): 0; Plant response rating ([6]; 62 g ai/ha): 0; Plant response rating ([6]; 125 g ai/ha): 10; Plant response rating ([6]; 250 g ai/ha): 50; Plant response rating ([7]; 31 g ai/ha): 5; Plant response rating ([7]; 62 g ai/ha): 5; Plant response rating ([7]; 125 g ai/ha): 5; Plant response rating ([7]; 250 g ai/ha): 30; Plant response rating ([8]; 31 g ai/ha): 60; Plant response rating ([8]; 62 g ai/ha): 85; Plant response rating ([8]; 125 g ai/ha): 95; Plant response rating ([8]; 250 g ai/ha): 95
O=C1NCCC(c2cccc(C(F)(F)F)c2)C1C(=O)Nc1ccccc1C(F)(F)F (stereo not drawn) [Compound 10, 2-oxo-N-[2-(trifluoromethyl)phenyl)-4-[3-(trifluoromethyl)phenyl]-3-piperidinecarboxamide]																					Plant response rating, Morningglory ([9]; 125 g ai/ha): 0; Plant response rating, Morningglory ([9]; 500 g ai/ha): 0; Crabgrass, Large plant response rating [10]: 90; Plant response rating, Crabgrass, Large [10]: 100
O=C1NCCC(c2cccc(C(F)(F)F)c2)C1C(=O)Nc1cccc(F)c1F (stereo not drawn) [Compound 9, N-(2,3-difluorophenyl)-2-oxo-4-[3-(trifluoromethyl)phenyl]-3-piperidinecarboxamide]	0	0	0	0	0	0	0	5	0	0	0	5	0	0	30	40	0	5	0	5	Plant response rating, Morningglory ([9]; 125 g ai/ha): 0; Plant response rating, Morningglory ([9]; 500 g ai/ha): 40; Plant response rating ([6]; 31 g ai/ha): 0; Plant response rating ([6]; 62 g ai/ha): 0; Plant response rating ([6]; 125 g ai/ha): 0; Plant response rating ([6]; 250 g ai/ha): 0; Plant response rating ([7]; 31 g ai/ha): 0; Plant response rating ([7]; 62 g ai/ha): 20; Plant response rating ([7]; 125 g ai/ha): 5; Plant response rating ([7]; 250 g ai/ha): 45; Plant response rating ([8]; 31 g ai/ha): 90; Plant response rating ([8]; 62 g ai/ha): 95; Plant response rating ([8]; 125 g ai/ha): 95; Plant response rating ([8]; 250 g ai/ha): 98; Crabgrass, Large plant response rating [10]: 90; Plant response rating, Crabgrass, Large [10]: 100
